Reference: ChEMBL document CHEMBL3046424, “Growth inhibitory effects on fall armyworm Spodoptera frugiperda of some limonoids isolated from Cedrela spp. (Meliaceae)” (2000)

Legend:
Format in all cases: functional
Spodoptera frugiperda [1] = assay: Insecticidal activity against Spodoptera frugiperda (fall armyworm) assessed as mean emergence at 52 ug/ml in artificial diet (reference value: 83.3 %)
Spodoptera frugiperda [2] = assay: Insecticidal activity against Spodoptera frugiperda (fall armyworm) assessed as mean time to pupation at 52 ug/ml in artificial diet (reference value: 22 days)
Spodoptera frugiperda [3] = assay: Insecticidal activity against Spodoptera frugiperda (fall armyworm) assessed as mean weight of pupae at 25 ug/ml in artificial diet (reference value: 281.5 +/- 10.3 mg)
Spodoptera frugiperda [4] = assay: Insecticidal activity against Spodoptera frugiperda (fall armyworm) assessed as mortality at 5 ug/ml in artificial diet measured after 7 days (reference value: 8.33%); details: 168 h
Spodoptera frugiperda [5] = assay: Insecticidal activity against Spodoptera frugiperda (fall armyworm) assessed as mean emergence at 25 ug/ml in artificial diet (reference value: 83.3 %)
Spodoptera frugiperda [6] = assay: Insecticidal activity against Spodoptera frugiperda (fall armyworm) assessed as mean weight gain at 70 ug/ml in artificial diet measured after 7 days (reference value: 75.5 +/- 8.24 mg)
Spodoptera frugiperda [7] = assay: Insecticidal activity against Spodoptera frugiperda (fall armyworm) assessed as mean emergence days at 5 ug/ml in artificial diet (reference value: 33 days)
Spodoptera frugiperda [8] = assay: Insecticidal activity against Spodoptera frugiperda (fall armyworm) assessed as mortality at 25 ug/ml in artificial diet measured after 7 days (reference value: 8.33%); details: 168 h
Spodoptera frugiperda [9] = assay: Insecticidal activity against Spodoptera frugiperda (fall armyworm) assessed as mean length at 5 ug/ml in artificial diet measured after 7 days (reference value: 0.95 +/- 0.2 cm)
Spodoptera frugiperda [10] = assay: Insecticidal activity against Spodoptera frugiperda (fall armyworm) assessed as mean length at 52 ug/ml in artificial diet measured after 7 days (reference value: 0.95 +/- 0.2 cm)
Spodoptera frugiperda [11] = assay: Insecticidal activity against Spodoptera frugiperda (fall armyworm) assessed as mean pupation at 52 ug/ml in artificial diet (reference value: 87.5 %)
Spodoptera frugiperda [12] = assay: Insecticidal activity against Spodoptera frugiperda (fall armyworm) assessed as mean length at 70 ug/ml in artificial diet measured after 7 days (reference value: 0.95 +/- 0.2 cm)
Spodoptera frugiperda [13] = assay: Insecticidal activity against Spodoptera frugiperda (fall armyworm) assessed as mortality at 52 ug/ml in artificial diet measured after 7 days (reference value: 8.33%); details: 168 h
Spodoptera frugiperda [14] = assay: Insecticidal activity against Spodoptera frugiperda (fall armyworm) assessed as mean emergence at 5 ug/ml in artificial diet (reference value: 83.3 %)
Spodoptera frugiperda [15] = assay: Insecticidal activity against Spodoptera frugiperda (fall armyworm) assessed as mean time to pupation at 25 ug/ml in artificial diet (reference value: 22 days)
Spodoptera frugiperda [16] = assay: Insecticidal activity against Spodoptera frugiperda (fall armyworm) assessed as mean weight gain at 5 ug/ml in artificial diet measured after 7 days (reference value: 469.5 +/- 6.59 mg)
Spodoptera frugiperda [17] = assay: Insecticidal activity against Spodoptera frugiperda (fall armyworm) assessed as mean length at 52 ug/ml in artificial diet measured after 7 days (reference value: 28 +/- 4.1 mg)
Spodoptera frugiperda [18] = assay: Insecticidal activity against Spodoptera frugiperda (fall armyworm) assessed as mean weight of pupae at 52 ug/ml in artificial diet (reference value: 281.5 +/- 10.3 mg)
Spodoptera frugiperda [19] = assay: Insecticidal activity against Spodoptera frugiperda (fall armyworm) assessed as mean length at 25 ug/ml in artificial diet measured after 7 days (reference value: 0.95 +/- 0.2 cm)
Spodoptera frugiperda [20] = assay: Insecticidal activity against Spodoptera frugiperda (fall armyworm) assessed as mean weight gain at 52 ug/ml in artificial diet measured after 7 days (reference value: 75.5 +/- 8.24 mg)
Spodoptera frugiperda [21] = assay: Insecticidal activity against Spodoptera frugiperda (fall armyworm) assessed as mean weight of pupae at 5 ug/ml in artificial diet (reference value: 281.5 +/- 10.3 mg)
Spodoptera frugiperda [22] = assay: Insecticidal activity against Spodoptera frugiperda (fall armyworm) assessed as mean time to pupation at 5 ug/ml in artificial diet (reference value: 22 days)
Spodoptera frugiperda [23] = assay: Insecticidal activity against Spodoptera frugiperda (fall armyworm) assessed as mean weight gain at 5 ug/ml in artificial diet measured after 7 days (reference value: 75.5 +/- 8.24 mg)
Spodoptera frugiperda [24] = assay: Insecticidal activity against Spodoptera frugiperda (fall armyworm) assessed as mean weight gain at 25 ug/ml in artificial diet measured after 7 days (reference value: 469.5 +/- 6.59 mg)
Spodoptera frugiperda [25] = assay: Insecticidal activity against Spodoptera frugiperda (fall armyworm) assessed as mean emergence days at 52 ug/ml in artificial diet (reference value: 33 days)
Spodoptera frugiperda [26] = assay: Insecticidal activity against Spodoptera frugiperda (fall armyworm) assessed as mean weight gain at 52 ug/ml in artificial diet measured after 7 days (reference value: 469.5 +/- 6.59 mg)
Spodoptera frugiperda [27] = assay: Insecticidal activity against Spodoptera frugiperda (fall armyworm) assessed as mean pupation at 5 ug/ml in artificial diet (reference value: 87.5 %)
Spodoptera frugiperda [28] = assay: Insecticidal activity against Spodoptera frugiperda (fall armyworm) assessed as mean pupation at 25 ug/ml in artificial diet (reference value: 87.5 %)
Spodoptera frugiperda [29] = assay: Insecticidal activity against Spodoptera frugiperda (fall armyworm) assessed as mean weight gain at 25 ug/ml in artificial diet measured after 7 days (reference value: 75.5 +/- 8.24 mg)
Spodoptera frugiperda [30] = assay: Insecticidal activity against Spodoptera frugiperda (fall armyworm) assessed as mean length at 5 ug/ml in artificial diet measured after 7 days (reference value: 28 +/- 4.1 mg)
Spodoptera frugiperda [31] = assay: Insecticidal activity against Spodoptera frugiperda (fall armyworm) assessed as mean length at 25 ug/ml in artificial diet measured after 7 days (reference value: 28 +/- 4.1 mg)
Spodoptera frugiperda [32] = assay: Insecticidal activity against Spodoptera frugiperda (fall armyworm) assessed as mortality at 70 ug/ml in artificial diet measured after 7 days (reference value: 8.33%); details: 168 h
Spodoptera frugiperda [33] = assay: Insecticidal activity against Spodoptera frugiperda (fall armyworm) assessed as mean emergence days at 25 ug/ml in artificial diet (reference value: 33 days)

CCC(=O)[C@@H]1C(=O)O[C@@]2(C=O)[C@H]1[C@](C)([C@@H](OC(C)=O)c1ccoc1)CC[C@@H]2[C@@]1(C)C(=O)C[C@@H]2O[C@@H](C(=O)OC)[C@H]1C2(C)C [CEDRELANOLIDE]
Activity (Spodoptera frugiperda [1]): 50%
Time (Spodoptera frugiperda [2]): 22.5 days
Activity (Spodoptera frugiperda [3]): 191.8 mg
mortality at 5 µg/mL (Spodoptera frugiperda [4]): 15%
Activity (Spodoptera frugiperda [5]): 62.5%
Activity (Spodoptera frugiperda [6]): 9.1 mg
Time (Spodoptera frugiperda [7]): 33 days
mortality at 25 µg/mL (Spodoptera frugiperda [8]): 21%
Activity (Spodoptera frugiperda [9]): 1.2 cm
Activity (Spodoptera frugiperda [10]): 0.7 cm
Activity (Spodoptera frugiperda [11]): 62.5%
Activity (Spodoptera frugiperda [12]): 0.51 cm
mortality at 52 µg/mL (Spodoptera frugiperda [13]): 28%
Activity (Spodoptera frugiperda [14]): 79.2%
Time (Spodoptera frugiperda [15]): 21.5 days
Activity (Spodoptera frugiperda [16]): 55.7 mg
Activity (Spodoptera frugiperda [17]): 5.3 mm
Activity (Spodoptera frugiperda [18]): 123.9 mg
Activity (Spodoptera frugiperda [19]): 0.95 cm
Activity (Spodoptera frugiperda [20]): 15.4 mg
Activity (Spodoptera frugiperda [21]): 221.9 mg
Time (Spodoptera frugiperda [22]): 22 days
Activity (Spodoptera frugiperda [23]): 27.85 mg
Activity (Spodoptera frugiperda [24]): 41.6 mg
Time (Spodoptera frugiperda [25]): 33 days
Activity (Spodoptera frugiperda [26]): 40.1 mg
Activity (Spodoptera frugiperda [27]): 79.2%
Activity (Spodoptera frugiperda [28]): 66.7%
Activity (Spodoptera frugiperda [29]): 20.8 mg
Activity (Spodoptera frugiperda [30]): 8.7 mm
Activity (Spodoptera frugiperda [31]): 6.7 mm
mortality at 70 µg/mL (Spodoptera frugiperda [32]): 38%
Time (Spodoptera frugiperda [33]): 33 days
